Experimental data from PubChem BioAssay AID489033 (Sanford-Burnham Center for Chemical Genomics, 2010).
The source made the active and inactive calls. No rule for the calls is given here.

System: 697B B-cell line, NF-kB luciferase reporter luminescence
Experiment: NF-kB reporter inhibition in B cells, dose response, selectivity assay for T-cell antigen receptor NF-kB inhibitors, 697B cells, luminescence (AID 489033)

Row | SMILES | IC50
1 | CCOC(=O)C(C)Oc1cccc2c(=O)n(CC(=O)NCc3ccc4c(c3)OCO4)ccc12 (stereo unspecified) | > 80 µM (inactive)
2 | O=C(N=Nc1c(O)[nH]c2ccc(Br)cc12)c1ccccc1-n1cccc1 | 57 µM (inactive)
3 | COC(=O)c1[nH]c2ccc(F)cc2c1NS(=O)(=O)c1ccc(OC)cc1 | > 80 µM (inactive)
4 | CCOC(=O)COc1cccc2c(=O)n(CC(=O)NCc3ccc(F)cc3)ccc12 | > 80 µM (inactive)
5 | CN=c1scc(-c2cccs2)n1/N=C/c1ccccc1O | 1.33 µM
6 | Cn1nc(C(C)(C)C)cc1C(=O)NCc1cc(F)cc2c1OCOC2 | > 80 µM (inactive)
7 | CNC[C@H](CC1CCCCC1)NC[C@H](Cc1ccccc1)NCCC12CC3CC(CC(C3)C1)C2 | 7.73 µM
8 | CC1CCCN(c2ncnc3c2cnn3-c2ccc(Cl)cc2)C1 (stereo unspecified) | < 0.16 µM
9 | Cc1c(C(=O)OCC(C)C)[nH]c2c1C(=O)CC(c1cccs1)C2 (stereo unspecified) | > 80 µM (inactive)
10 | Cn1cc(/C=N/n2cnc3scc(-c4ccc(Cl)cc4)c3c2=O)c2ccccc21 | > 80 µM (inactive)
11 | O=C(c1cc(-c2ccncc2)nc2c(Cl)cccc12)N1CCN(c2ccccc2F)CC1 | > 80 µM (inactive)
12 | COc1ccccc1C(=O)N(CCC1CCCN1C)c1nc2ccccc2s1 (stereo unspecified) | > 80 µM (inactive)
13 | Cc1cccc(N2CCN(C(=O)c3ccc(CS(=O)(=O)c4ccccc4C)o3)CC2C)c1 (stereo unspecified) | 22.3 µM (inactive)
14 | COc1cc2c(c(OC)c1OC)-c1ccc(OC)c(=O)cc1[C@@H](NC(C)=O)CC2 | > 80 µM (inactive)
15 | COc1cc(C(=O)N/N=C/c2cc([N+](=O)[O-])cs2)cc(OC)c1OC | 5.64 µM
16 | COC(=O)CCC(=O)NC(=S)Nc1sc(C)c(C)c1C(N)=O | > 80 µM (inactive)
17 | COc1cccc(N2CCN(C(=O)c3ccc(CS(=O)c4ccccc4C)o3)CC2)c1 (stereo unspecified) | > 80 µM (inactive)
18 | CCOc1ccccc1NC(=O)Cn1nnc(C(=O)NCc2ccco2)c1N | > 80 µM (inactive)
19 | O=C(NC(Nc1nc2ccc([N+](=O)[O-])cc2s1)(C(F)(F)F)C(F)(F)F)c1ccccc1 | 0.72 µM
20 | Cc1c(C(=O)OCc2ccccc2)[nH]c2c1C(=O)CC(c1ccco1)C2 (stereo unspecified) | > 80 µM (inactive)
21 | CCOc1ccccc1C(=O)N1CCN(c2cccc(Cl)c2)CC1 | > 80 µM (inactive)
22 | O=C(Nc1ccc(N2CCOCC2)cc1)c1ccc(Cl)c(S(=O)(=O)N2CCCCC2)c1 | > 80 µM (inactive)
23 | COc1ccc(C2=Nn3c([n+](C)c4ccccc43)SC2)cc1 | 31 µM (inactive)
24 | O=C(Nc1ccccc1Cl)/C(Cl)=C(\Cl)S(=O)c1ccccc1 (stereo unspecified) | 0.53 µM

Row | SMILES | IC50
25 | CCCC[C@@H](C)C[C@@H](C)C(=O)N(C)[C@@H](CC(C)C)C(=O)N[C@H](C(=O)N(C)[C@H](C(=O)N1C[C@@H](O)C[C@H]1C(=O)N1C(=O)C=C[C@@H]1C)C(C)C)C(C)OC(C)=O (stereo partly specified) | < 0.16 µM
26 | O=S(=O)(c1ccc2c(c1)OCCO2)N1CCN(c2ncnc3sccc23)CC1 | 4 µM
27 | COc1ccccc1N=C(C)C1=C(O)CC(c2ccccc2)CC1=O (stereo unspecified) | > 80 µM (inactive)
28 | COc1ccccc1N1CCN(C(=O)c2ccc(-c3ccc(Cl)cc3)o2)CC1 | 66.5 µM (inactive)
29 | Cc1ccc(S(=O)(=O)Cc2ccc(C(=O)N3CCN(c4cccc(C)c4C)CC3)o2)cc1 | 57.9 µM (inactive)
30 | O=C(Nc1ccc(N2CCCCC2)cc1)c1ccccn1 | 0.41 µM
31 | COc1ccc(-n2nnnc2-c2ccccc2)cc1 | > 80 µM (inactive)
32 | CCCCCC(=O)N[C@@H](c1ccccc1)[C@@H](O)C(=O)O[C@H]1C[C@@]2(O)[C@@H](OC(=O)c3ccccc3)C3[C@](C)(C(=O)[C@H](OC(C)=O)C(=C1C)C2(C)C)[C@@H](O)C[C@H]1OC[C@@]31OC(C)=O (stereo partly specified) | > 80 µM (inactive)
33 | Cc1nn(-c2ccccc2Cl)c(Cl)c1/C=N/Nc1nc2ccccc2s1 | < 0.16 µM
34 | CC1Cc2cc(-c3csc(NC(=O)Cc4cccs4)n3)ccc2N1S(C)(=O)=O (stereo unspecified) | 13.9 µM
35 | COc1ccc(-n2cc(-c3ccc(C)cc3)[n+]3c2SCC3)cc1 | > 80 µM (inactive)
36 | CSc1nc(N(C)NC(=O)c2cccc(C)c2)c2ccccc2n1 | > 80 µM (inactive)
37 | Cc1ccc(O)c(NC(=O)CCC2CCCCC2)c1 | > 80 µM (inactive)
38 | CCOc1ccc(-c2[nH]ncc2-c2ccc(OC)c(OC)c2)c(O)c1 | > 80 µM (inactive)
39 | CC(C)Oc1ccccc1C1CC(=O)Nc2cc3c(cc21)OCO3 (stereo unspecified) | > 80 µM (inactive)
40 | Cc1ccc2nc(-c3ccc4c(c3)OCCO4)cn2c1 | 0.47 µM
41 | COc1ccccc1C1=NOC(COc2ccc3c(C)cc(=O)oc3c2)C1 (stereo unspecified) | > 80 µM (inactive)
42 | CCc1cc(C(=O)NC2CCCc3c2cnn3-c2cccc(C)c2C)n(C)n1 (stereo unspecified) | > 80 µM (inactive)
43 | O=C(c1ccc(CS(=O)c2ccccc2Cl)o1)N1CCN(c2ccccn2)CC1 (stereo unspecified) | > 80 µM (inactive)
44 | COC(=O)c1[nH]c2c(c1C)C(=O)CC(c1cccc(OC)c1)C2 (stereo unspecified) | > 80 µM (inactive)
45 | COc1ccc(C(=O)/C(C#N)=N/Nc2ccc([N+](=O)[O-])cc2)cc1 | 18.6 µM
46 | CSc1ccc(COC(=O)c2cc([N+](=O)[O-])ccc2N2CCOCC2)cc1 | 30 µM (inactive)
47 | Cc1ccc(C(=O)O/N=C(\N)c2ccccn2)c(Cl)c1 | 0.86 µM
48 | COc1ccc(CCNc2nnc(Sc3nnnn3-c3ccccc3)s2)cc1OC | 18.9 µM

Row | SMILES | IC50
49 | Cc1cc(-n2c(C)cc(C(=O)CSc3ncnc4ccccc34)c2C)no1 | 67 µM (inactive)
50 | COc1cc(C2C3=C(Nc4ncnn42)c2ccccc2CC3)cc(OC)c1OC (stereo unspecified) | > 80 µM (inactive)
51 | COc1cccc(/C=N/NC(=O)c2[nH]nc3c2CCc2ccccc2-3)c1O | 61.7 µM (inactive)
52 | O=C(c1ccc(Cl)cc1)c1cc([N+](=O)[O-])ccc1N1CCOCC1 | 76 µM (inactive)
53 | Cn1ncnc2c(=O)n(C)c(=O)nc1-2 | 2.85 µM
54 | COc1ccc(/C=N/Nc2cc(C)nc3ccc(OC)cc23)c(OC)c1 | 5.2 µM
55 | COc1ccc(Nc2nc3cc(C)ccc3cc2C#N)c(OC)c1 | > 80 µM (inactive)
56 | CCOc1ccc(S(=O)(=O)NCc2ccccn2)cc1NC(=O)c1ccccc1F | > 80 µM (inactive)
57 | O=C(NN=Cc1c(O)ccc2ccccc12)c1ccc2c(c1)OCO2 | > 80 µM (inactive)
58 | COc1ccc(OC)c(NS(=O)(=O)c2ccc(N3CCCC3=O)cc2)c1 | > 80 µM (inactive)
59 | CCCOc1ccc(/C=N/Nc2cc(N3CCOCC3)ncn2)c(O)c1 | 11 µM
60 | COc1ccc(OC)c(-c2nnc3n2N=C(c2ccc(OC)c(OC)c2)CS3)c1 | 55.2 µM (inactive)
61 | O=C(Nc1ccc(S(=O)(=O)Nc2ccccc2)cc1)c1ccc(CN2CCOCC2)cc1 | 46.1 µM (inactive)
62 | C=C(C)COc1ccc(-c2n[nH]c(C)c2-c2ccc(OC)c(OC)c2)c(O)c1 | 43.3 µM (inactive)
63 | O=C1C=C(c2ccc3ncccc3c2)C[C@@H](c2ccc3c(c2)OCO3)C1 | > 80 µM (inactive)
64 | CC(C)c1oc(=O)cc2c1[C@@H](O)[C@H]1OC(=O)[C@@]3(C)CC[C@@H](O)[C@@]2(C)C13 (stereo partly specified) | 14 µM
65 | C=CCn1c(SCc2c(C)noc2C)nc2ccccc2c1=O | > 80 µM (inactive)
66 | c1ccc(-c2cccc(-c3ccccn3)n2)nc1 | 6.4 µM
67 | CC1=CC(C)(C)N(S(=O)(=O)c2ccc(C)cc2)c2cc(C)ccc21 | > 80 µM (inactive)
68 | CCOc1cc(C#N)c(NC(=O)c2cccnc2)cc1OCC | > 80 µM (inactive)
69 | CCN1C/C(=C/c2ccc(OC)c(O)c2)C(=O)/C(=C/c2ccc(OC)c(O)c2)C1 | 25.2 µM (inactive)
70 | COc1ccc(N/N=C/c2c(C(=O)O)ccc3ccccc23)cc1 | 58.4 µM (inactive)
71 | Cc1ccc(S(=O)(=O)Nc2ccccc2-c2ccccc2)cc1 | > 80 µM (inactive)
72 | O=C(N/N=C\c1c(O)ccc2ccccc12)c1ccc(S(=O)(=O)N2CCCCC2)cc1 | > 80 µM (inactive)

Row | SMILES | IC50
73 | CCOc1ccc(S(=O)(=O)N2c3ccccc3CC2C)cc1 (stereo unspecified) | > 80 µM (inactive)
74 | CCc1c(C)nc2ncnn2c1NCCc1ccc(OC)cc1 | > 80 µM (inactive)
75 | COc1ccc(C(=O)N2CCN(c3ccc([N+](=O)[O-])c(NCCc4ccc(OC)c(OC)c4)c3)CC2)cc1 | > 80 µM (inactive)
76 | Cn1c(SC2=CS(=O)(=O)c3ccccc32)nc2ccccc21 | 3.54 µM
77 | Cc1ccc(C(=O)c2cc([N+](=O)[O-])ccc2N2CCOCC2)cc1C | > 80 µM (inactive)
78 | Cc1c(C)c2ccc(OCC(=O)Nc3ccccn3)c(C)c2oc1=O | 7.65 µM
79 | O=S1(=O)Nc2c(ccc3cccnc23)-c2ccccc21 | 0.54 µM
80 | COc1ccc([C@H]2CC(=O)C=C(c3c(OC)cccc3OC)C2)cc1 | > 80 µM (inactive)
81 | Cc1c(C(=O)N/N=C/c2c(O)ccc3ccccc23)nnn1-c1nonc1N | 34.7 µM (inactive)
82 | Cc1ccc(O)c(NC(=O)c2cc(-c3ccco3)on2)c1 | > 80 µM (inactive)
83 | Nc1nc(-c2ccccc2)cc(N2CCCCC2)n1 | > 80 µM (inactive)
84 | COc1cc(/C=C/c2ccc3cccc(O)c3n2)cc(OC)c1OC | 0.63 µM
85 | CC(C)Cn1c(N)c(C(=O)CSc2ccc3c(c2)OCCO3)c(=O)n(C)c1=O | 51.7 µM (inactive)
86 | Cn1nc(CC(=O)Nc2ccc(N3CCN(C(=O)OC(C)(C)C)CC3)cc2)c2ccccc2c1=O | > 80 µM (inactive)
87 | C[C@@H]1O[C@@H](O[C@H]2C[C@@H](O)[C@]3(CO)[C@H]4[C@H](O)C[C@]5(C)[C@@H](C6COC(=O)C6)CC[C@]5(O)[C@@H]4CC[C@]3(O)C2)[C@H](O)[C@H](O)[C@H]1O (stereo partly specified) | 3.72 µM
88 | Nc1nc2n[nH]nc2c(=O)[nH]1 | 2.56 µM
89 | Cc1ccc2nc(SCC(=O)Nc3cc(C(F)(F)F)ccc3N3CCOCC3)[nH]c2c1 | > 80 µM (inactive)
90 | CCOCCCNC(=O)c1ccc2c(c1)N=C(CC)c1cc(Br)ccc1S2 | > 80 µM (inactive)
91 | COc1cc(NCCCCCCCN)c2ncccc2c1 | 41.4 µM (inactive)
92 | O=C(NNc1ccnc2cc(Cl)ccc12)C1CCCCC1 | > 80 µM (inactive)
93 | COc1ccc(C2=NOC(C(=O)NCc3ccc(F)cc3)C2)cc1OC (stereo unspecified) | > 80 µM (inactive)
94 | Cc1cc(C)nc(SCC(=O)Nc2ccnc3ccccc23)n1 | > 80 µM (inactive)
95 | CC(C)Nc1ccc(C(CC(N)=O)NC(=O)Cc2ccc(Br)cc2)cc1[N+](=O)[O-] (stereo unspecified) | 37.8 µM (inactive)
96 | CCOc1ccc(N/C(N)=N/c2nc(CSc3nnc(C)s3)cc(=O)[nH]2)cc1 | > 80 µM (inactive)
